Key:
[1] = biological target: T1, human recombinant histamine H1 receptor (Homo sapiens, UniProt P35367); test: Histamine H1 radioligand binding ([3H]Pyrilamine); conditions: 1.2 nM [3H]Pyrilamine; for inhibition at 0.1 µM / Histamine Binding (0.1 μM) H1, percentage inhibition: compound at 0.1 μM; for inhibition at 0.1 µM: read-out: Histamine Binding (0.1 μM) H1, percentage inhibition
T1 construct: expressed in transfected cells; host or cells: CHO-K1
Experimental: To evaluate in radioligand binding assays the activity of compounds of the invention, human recombinant histamine H1 receptor expressed in Chinese hamster ovary (CHO) K1 cells (De Backer, M. et al, Biochem. Biophys. Res. Comm. 197(3):1601, 1993) in a modified Tris-HCl buffer (50 mM Tris-HCl, pH 7.4, 2 mM MgCl2, 100 mM NaCl, 250 mM Sucrose) was used. Compounds of the invention were incubated with 1.2 nM [^3H]Pyrilamine for 180 min. at 25° C. Non-specific binding was estimated in the presence of 1 μM Pyrilamine. Receptor proteins were filtered and washed, the filters were then counted to determine [^3H]Pyrilamine specifically bound. Compounds were screened at 1 μM or lower, using 1% DMSO as vehicle. Biochemical assay results are presented as the percent inhibition of specific binding in Table 2.

[2] = biological target: T2, human recombinant serotonin (5-Hydroxytryptamine) 5-HT2A receptor (Homo sapiens, UniProt P28223); test: Serotonin 5-HT2A radioligand binding ([3H]Ketanserin); conditions: for inhibition at 0.1 µM / Serotonin (0.1 μM) 5-HT2A, percentage inhibition of ligand binding: compound at 0.1 μM; for inhibition at 0.1 µM: read-out: Serotonin (0.1 μM) 5-HT2A, percentage inhibition of ligand binding
T2 construct: expressed in transfected cells; host or cells: CHO-K1
T2 sequence (P28223 whole entry): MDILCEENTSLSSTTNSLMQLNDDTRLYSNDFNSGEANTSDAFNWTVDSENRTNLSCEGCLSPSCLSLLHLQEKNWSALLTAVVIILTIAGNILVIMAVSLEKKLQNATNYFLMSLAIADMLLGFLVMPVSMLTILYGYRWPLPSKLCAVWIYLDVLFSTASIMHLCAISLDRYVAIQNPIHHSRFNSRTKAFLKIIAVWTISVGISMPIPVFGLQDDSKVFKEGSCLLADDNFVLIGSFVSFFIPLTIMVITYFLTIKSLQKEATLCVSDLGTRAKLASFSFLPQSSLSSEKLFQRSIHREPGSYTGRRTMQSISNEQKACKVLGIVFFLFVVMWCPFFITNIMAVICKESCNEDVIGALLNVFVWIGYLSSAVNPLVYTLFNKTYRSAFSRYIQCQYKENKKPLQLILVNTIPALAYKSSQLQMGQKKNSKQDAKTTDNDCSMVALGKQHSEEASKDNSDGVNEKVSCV
Experimental: To evaluate in radioligand binding assays the activity of compounds of the invention, human recombinant serotonin (5-Hydroxytryptamine) 5-HT2A receptor expressed in Chinese hamster ovary (CHO)-K1 cells (Bonhaus, D. et al, Br. J. Pharmacol. 115:622, 1995; Saucier, C. et al, J. Neurochem. 68:1998, 1997) in a 50 mM Tris-HCl buffer, pH 7.4, was used. Compounds of the invention were incubated with 0.5 nM [^3H]Ketanserin for 60 min. at 25° C. Non-specific binding was estimated in the presence of 1 μM Mianserin. Receptor proteins were filtered and washed, the filters were then counted to determine [^3H]Ketanserin specifically bound. Compounds were screened at 1 μM or lower, using 1% DMSO as vehicle. Biochemical assay results are presented as the percent inhibition of specific binding in Table 4.

[3] = biological target: T3, human recombinant serotonin (5-Hydroxytryptamine) 5-HT2C receptor (Homo sapiens, UniProt P28335); test: Serotonin 5-HT2C radioligand binding ([3H]Mesulergine); conditions: for inhibition at 0.1 µM / Serotonin (0.1 μM) 5-HT2C, percentage inhibition of ligand binding: compound at 0.1 μM; for inhibition at 0.1 µM: read-out: Serotonin (0.1 μM) 5-HT2C, percentage inhibition of ligand binding
T3 construct: expressed in transfected cells; host or cells: CHO-K1
T3 sequence (P28335 33-458): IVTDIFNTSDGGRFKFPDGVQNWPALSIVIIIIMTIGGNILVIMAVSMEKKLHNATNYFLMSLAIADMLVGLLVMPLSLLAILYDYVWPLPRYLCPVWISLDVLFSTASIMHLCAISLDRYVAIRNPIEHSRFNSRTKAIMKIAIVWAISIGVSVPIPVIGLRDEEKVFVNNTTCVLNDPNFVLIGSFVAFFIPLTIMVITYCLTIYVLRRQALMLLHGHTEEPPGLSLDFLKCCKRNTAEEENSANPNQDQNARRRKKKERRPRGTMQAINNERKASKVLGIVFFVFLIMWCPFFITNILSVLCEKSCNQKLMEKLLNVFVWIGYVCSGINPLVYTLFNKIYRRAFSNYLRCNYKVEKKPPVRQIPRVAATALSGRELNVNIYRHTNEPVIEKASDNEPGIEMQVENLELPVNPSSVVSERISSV
Experimental: To evaluate in radioligand binding assays the activity of compounds of the invention, human recombinant serotonin (5-Hydroxytryptamine) 5-HT2C receptor expressed in Chinese hamster ovary (CHO)-K1 cells (Wolf, W. et al, J. Neurochem. 69:1449, 1997) in a modified Tris-HCl buffer (50 mM Tris-HCl, pH 7.4, 0.1% Ascorbic Acid, 10 μM Pargyline) was used. Compounds of the invention were incubated with 1 nM [^3H]Mesulergine for 60 min. at 25° C. Non-specific binding was estimated in the presence of 1 μM Mianserin. Receptor proteins were filtered and washed, the filters were then counted to determine [^3H]Mesulergine specifically bound. Compounds were screened at 1 μM or lower, using 1% DMSO as vehicle. Biochemical assay results are presented as the percent inhibition of specific binding in Table 4.

[4] = biological target: T4, human recombinant adrenergic α2C receptor (Homo sapiens, UniProt P18825); test: Adrenergic α2C radioligand binding ([3H]MK-912); conditions: compound at 0.1 μM; for inhibition at 0.1 µM: read-out: Adrenergic (0.1 μM) a2C, percentage inhibition of ligand binding
T4 construct: expressed in transfected cells; host or cells: insect Sf9 cells
T4 sequence (P18825 1-462): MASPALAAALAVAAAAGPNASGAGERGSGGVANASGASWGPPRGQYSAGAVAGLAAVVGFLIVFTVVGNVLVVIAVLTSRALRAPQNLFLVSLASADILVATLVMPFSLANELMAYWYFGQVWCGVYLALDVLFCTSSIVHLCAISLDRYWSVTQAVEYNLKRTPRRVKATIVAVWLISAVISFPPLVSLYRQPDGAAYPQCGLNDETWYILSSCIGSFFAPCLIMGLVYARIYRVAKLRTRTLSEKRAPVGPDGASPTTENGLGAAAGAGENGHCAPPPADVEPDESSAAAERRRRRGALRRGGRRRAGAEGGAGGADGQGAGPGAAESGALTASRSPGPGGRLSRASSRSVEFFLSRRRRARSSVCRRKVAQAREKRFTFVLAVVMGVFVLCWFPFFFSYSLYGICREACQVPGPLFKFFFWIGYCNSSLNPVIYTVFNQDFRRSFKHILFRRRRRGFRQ
Experimental: To evaluate in radioligand binding assays the activity of compounds of the invention, human recombinant adrenergic α2C receptor expressed in insect Sf9 cells (Uhlen, S. et al, J. Pharmacol. Exp. Ther. 271:1558, 1994) in a modified Tris-HCl buffer (50 mM Tris-HCl, pH 7.4, 12.5 mM MgCl2, 2 mM EDTA) was used. Compounds of the invention were incubated with 1 nM [^3H]MK-912 for 60 min. at 25° C. Non-specific binding was estimated in the presence of 10 μM WB-4101. Receptor proteins were filtered and washed, the filters were then counted to determine [^3H]MK-912 specifically bound. Compounds were screened at 1 μM or lower, using 1% DMSO as vehicle. Biochemical assay results are presented as the percent inhibition of specific binding in Table 3.

[5] = biological target: T5, human recombinant serotonin (5-Hydroxytryptamine) 5-HT5A receptor (Homo sapiens, UniProt P47898); test: Serotonin 5-HT5A radioligand binding ([3H]LSD); conditions: compound at 0.1 μM; for inhibition at 0.1 µM: read-out: Serotonin (0.1 μM) 5-HT5A, percentage inhibition of ligand binding
T5 construct: expressed in transfected cells; host or cells: CHO-K1
T5 sequence (P47898 whole entry): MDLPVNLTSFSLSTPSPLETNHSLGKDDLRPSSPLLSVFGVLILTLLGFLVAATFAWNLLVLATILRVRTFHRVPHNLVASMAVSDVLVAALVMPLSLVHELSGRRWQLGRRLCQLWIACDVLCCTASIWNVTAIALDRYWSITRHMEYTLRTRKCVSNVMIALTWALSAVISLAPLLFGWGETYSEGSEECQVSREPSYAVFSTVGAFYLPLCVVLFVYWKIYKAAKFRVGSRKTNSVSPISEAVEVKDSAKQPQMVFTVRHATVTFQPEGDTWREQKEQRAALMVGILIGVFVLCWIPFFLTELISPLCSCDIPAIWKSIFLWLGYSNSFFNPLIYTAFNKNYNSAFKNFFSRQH
Experimental: To evaluate in radioligand binding assays the activity of compounds of the invention, human recombinant serotonin (5-Hydroxytryptamine) 5-HT5A receptor expressed in Chinese hamster ovary (CHO)-K1 cells (Rees, S. et al, FEBS Lett. 355:242, 1994) in a modified Tris-HCl buffer (50 mM Tris-HCl, pH 7.4, 10 mM MgCl2, 0.5 mM EDTA) was used. Compounds of the invention were incubated with 1.7 nM [^3H]Lysergic acid diethylamide (LSD) for 60 min. at 37° C. Non-specific binding was estimated in the presence of 100 μM Serotonin (5-HT). Receptor proteins were filtered and washed, the filters were counted to determine [^3H]LSD specifically bound. Compounds were screened at 1 μM or lower, using 1% DMSO as vehicle. Biochemical assay results are presented as the percent inhibition of specific binding in Table 4.

T1 sequence (P35367 whole entry): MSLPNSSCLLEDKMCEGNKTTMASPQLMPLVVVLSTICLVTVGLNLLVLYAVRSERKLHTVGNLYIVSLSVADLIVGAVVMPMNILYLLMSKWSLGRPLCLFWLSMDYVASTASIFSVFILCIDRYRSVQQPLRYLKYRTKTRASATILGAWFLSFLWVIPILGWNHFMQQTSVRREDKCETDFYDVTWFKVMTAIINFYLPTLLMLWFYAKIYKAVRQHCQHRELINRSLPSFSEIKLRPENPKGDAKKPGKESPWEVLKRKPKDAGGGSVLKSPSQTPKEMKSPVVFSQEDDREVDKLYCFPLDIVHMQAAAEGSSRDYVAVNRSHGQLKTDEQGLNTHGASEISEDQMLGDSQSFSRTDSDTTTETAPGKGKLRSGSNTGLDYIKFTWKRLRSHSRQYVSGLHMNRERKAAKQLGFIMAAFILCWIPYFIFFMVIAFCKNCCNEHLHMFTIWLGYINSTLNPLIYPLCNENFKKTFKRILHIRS

| SMILES | inhibition at 0.1 µM [1] [%] | inhibition at 1 µM ([1]; compound at 1 μM, read-out: Histamine Binding (1 μM) H1, percentage inhibition) [%] | inhibition at 0.1 µM [2] [%] | inhibition at 1 µM ([2]; compound at 1 μM, read-out: Serotonin (1 μM) 5-HT2A, percentage inhibition of ligand binding) [%] | inhibition at 0.1 µM [3] [%] | inhibition at 1 µM ([3]; compound at 1 μM, read-out: Serotonin (1 μM) 5-HT2C, percentage inhibition of ligand binding) [%] | inhibition at 0.1 µM [4] [%] | inhibition at 0.1 µM [5] [%] | Histamine Binding (0.1 μM) H1, percentage inhibition [1] [%] | Adrenergic (0.1 μM) a2C, percentage inhibition of ligand binding [4] [%] | Serotonin (0.1 μM) 5-HT2A, percentage inhibition of ligand binding [2] [%] | Serotonin (0.1 μM) 5-HT2C, percentage inhibition of ligand binding [3] [%] | Serotonin (0.1 μM) 5-HT5A, percentage inhibition of ligand binding [5] [%] |
| --- | --- | --- | --- | --- | --- | --- | --- | --- | --- | --- | --- | --- | --- |
| Cc1cc2c3c(c1)c1c(n3CC(c3ccc(F)cc3)C2)CCN(C)C1 (stereo not drawn) [Compound 3] | 49 | 83 | 69 | 94 | 54 | 95 |  |  |  |  |  |  |  |
| Cc1cc2c3c(c1)c1c(n3CC(C)(c3ccc(C)nc3)OC(C)C2)CCN(C)C1 (stereo not drawn) [Compound 160] | 0 |  | -4 |  | 7 |  | 16 | 2 |  |  |  |  |  |
| Cc1cc2c3c(c1)c1c(n3CC(C)(c3ccc(C)nc3)OC2C)CCN(C)C1 (stereo not drawn) [Compound 161] |  |  |  |  |  |  |  |  | 13 | 3 | −2 | −4 | 4 |
| Cc1cc2c3c(c1)c1c(n3C[C@@](C)(c3ccncc3)O[C@H]2C)CCN(C)C1 [Compound 162] | 25 |  | 7 |  | 6 |  | 13 | 16 |  |  |  |  |  |
| Cc1cc2c3c(c1)c1c(n3C[C@](C)(c3ccncc3)O[C@H]2C)CCN(C)C1 [Compound 163] | 11 |  | 3 |  | 5 |  | 12 | 10 |  |  |  |  |  |
| Cc1cc2c3c(c1)c1c(n3CC(C)(c3ccc(C)nc3)OC2C)CCN(C)C1 (stereo not drawn) [Compound 164] |  |  |  |  |  |  |  |  | −5 | −4 | 0 | 2 | −22 |
| Cc1cc2c3c(c1)c1c(n3CC(C)(c3ccncc3)OC(C)C2)CCN(C)C1 (stereo not drawn) [Compound 165] | 37 |  | 12 |  | 14 |  | 20 | 16 |  |  |  |  |  |
